Activity calls are given as the source filed them. The calls are words filed in the database; no cut-off is given here.
What was measured:
[1] = target: RAF proto-oncogene serine/threonine-protein kinase (Homo sapiens, UniProt P04049); experiment: Inhibition of c-Raf1 kinase
[2] = target: T1, High affinity nerve growth factor receptor (Homo sapiens, UniProt P04629); experiment: (§1) Inhibition of receptor Tyrosine kinase A, TrkA (nerve growth factor receptor)
Target sequence in this assay (P04629 whole entry): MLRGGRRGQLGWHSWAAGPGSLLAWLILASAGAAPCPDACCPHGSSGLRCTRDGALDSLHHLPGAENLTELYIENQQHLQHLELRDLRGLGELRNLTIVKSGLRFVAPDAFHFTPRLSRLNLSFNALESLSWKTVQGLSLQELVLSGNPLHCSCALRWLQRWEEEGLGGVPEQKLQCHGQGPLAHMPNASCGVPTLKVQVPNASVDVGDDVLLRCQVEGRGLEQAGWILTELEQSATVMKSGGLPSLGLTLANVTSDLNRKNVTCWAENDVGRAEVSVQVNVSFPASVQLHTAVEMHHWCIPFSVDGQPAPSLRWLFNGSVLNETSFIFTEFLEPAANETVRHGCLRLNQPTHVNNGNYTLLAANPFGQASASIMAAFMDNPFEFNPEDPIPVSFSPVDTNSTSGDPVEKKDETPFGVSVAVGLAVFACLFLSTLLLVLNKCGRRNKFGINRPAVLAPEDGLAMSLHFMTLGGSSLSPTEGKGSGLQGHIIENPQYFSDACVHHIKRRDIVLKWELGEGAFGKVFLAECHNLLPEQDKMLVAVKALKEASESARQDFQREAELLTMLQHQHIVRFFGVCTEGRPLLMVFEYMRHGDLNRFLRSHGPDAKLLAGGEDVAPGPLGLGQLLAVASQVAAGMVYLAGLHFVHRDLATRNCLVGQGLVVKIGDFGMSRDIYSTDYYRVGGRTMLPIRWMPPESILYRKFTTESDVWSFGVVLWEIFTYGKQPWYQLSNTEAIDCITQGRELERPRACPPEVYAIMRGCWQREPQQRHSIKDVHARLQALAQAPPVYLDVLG

[3] = target: Cyclin-dependent kinase 2/cyclin A (Homo sapiens, UniProt P24941); experiment: Inhibition of Cyclin-dependent kinase 2 cyclin A; format: protein-complex assay
[4] = target: T1, High affinity nerve growth factor receptor; experiment: as §1; remark: listed apart in the source
Target sequence in this assay (P04629 33-796 limits assumed): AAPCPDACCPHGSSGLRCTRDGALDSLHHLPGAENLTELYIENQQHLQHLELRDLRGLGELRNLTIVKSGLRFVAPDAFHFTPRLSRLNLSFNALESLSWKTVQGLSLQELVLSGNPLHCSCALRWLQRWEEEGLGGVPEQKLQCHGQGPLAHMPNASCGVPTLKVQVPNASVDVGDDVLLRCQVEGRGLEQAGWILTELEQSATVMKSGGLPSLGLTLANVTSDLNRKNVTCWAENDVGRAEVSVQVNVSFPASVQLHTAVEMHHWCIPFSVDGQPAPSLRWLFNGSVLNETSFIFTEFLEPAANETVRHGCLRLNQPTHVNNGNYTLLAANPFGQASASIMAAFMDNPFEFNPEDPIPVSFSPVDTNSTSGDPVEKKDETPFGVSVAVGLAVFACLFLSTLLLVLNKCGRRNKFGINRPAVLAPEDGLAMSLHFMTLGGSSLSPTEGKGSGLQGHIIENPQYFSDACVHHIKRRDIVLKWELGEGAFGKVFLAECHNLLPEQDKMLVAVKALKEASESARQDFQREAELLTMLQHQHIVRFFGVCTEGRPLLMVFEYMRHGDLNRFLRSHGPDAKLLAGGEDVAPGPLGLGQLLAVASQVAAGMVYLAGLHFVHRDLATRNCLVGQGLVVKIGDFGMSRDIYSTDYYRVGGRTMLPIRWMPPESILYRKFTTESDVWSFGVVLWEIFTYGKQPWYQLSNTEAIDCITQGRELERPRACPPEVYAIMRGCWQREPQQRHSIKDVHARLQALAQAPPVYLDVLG

[5] = Inhibition prostate cancer growth in 10 diverse animal models; format: functional, tissue-based; settings: Prostate gland

Chain of RAF proto-oncogene serine/threonine-protein kinase (P04049 whole entry): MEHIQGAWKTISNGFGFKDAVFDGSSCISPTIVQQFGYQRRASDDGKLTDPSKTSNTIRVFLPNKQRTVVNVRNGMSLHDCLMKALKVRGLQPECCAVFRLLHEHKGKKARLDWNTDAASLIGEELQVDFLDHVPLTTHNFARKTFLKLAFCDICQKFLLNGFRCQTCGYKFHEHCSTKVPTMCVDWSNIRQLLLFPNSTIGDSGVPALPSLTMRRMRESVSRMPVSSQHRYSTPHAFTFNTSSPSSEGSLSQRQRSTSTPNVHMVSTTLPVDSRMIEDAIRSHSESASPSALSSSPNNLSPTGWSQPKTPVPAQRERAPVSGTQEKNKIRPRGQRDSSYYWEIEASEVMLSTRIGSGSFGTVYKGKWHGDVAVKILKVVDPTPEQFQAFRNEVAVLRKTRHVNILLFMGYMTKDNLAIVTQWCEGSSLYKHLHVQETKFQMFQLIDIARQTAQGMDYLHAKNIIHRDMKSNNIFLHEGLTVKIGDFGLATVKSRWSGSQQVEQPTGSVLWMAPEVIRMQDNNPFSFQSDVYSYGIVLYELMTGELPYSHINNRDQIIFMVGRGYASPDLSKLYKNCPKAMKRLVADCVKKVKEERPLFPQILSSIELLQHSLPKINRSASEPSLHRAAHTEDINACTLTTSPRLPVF

| IC50 [1] | IC50 [2] | IC50 [3] | SMILES | Activity [4] | Activity [5] |
| --- | --- | --- | --- | --- | --- |
| > 10 µM | 0.007 µM | 2.5 µM | O=C1Nc2ccccc2/C1=C/Nc1ccc2[nH]c(=O)[nH]c2c1 [GW284408X] | – | – |
| > 10 µM | 0.006 µM | 8 µM | O=C1Nc2ccccc2/C1=C1\CCc2cc(O)ccc21 | – | – |
| – | 0.009 µM | – | O=C1Nc2ccc3ncsc3c2/C1=C/Nc1ccc(S(=O)(=O)Nc2ccccn2)cc1 | – | – |
| > 10 µM | 0.008 µM | 7.2 µM | O=C1Nc2ccccc2/C1=C/Nc1ccc(-n2cncn2)cc1 [GW301789X] | – | – |
| > 10 µM | 0.063 µM | > 10 µM | NS(=O)(=O)c1cccc(N/C=C2\C(=O)Nc3ccccc32)c1 [GW275616X] | – | – |
| > 10 µM | 0.006 µM | 8 µM | CS(=O)(=O)Nc1ccc(N/C=C2\C(=O)Nc3ccccc32)cc1 [GW278681X] | – | – |
| – | – | – | C[C@]12O[C@H](C[C@]1(O)CO)n1c3ccccc3c3c4c(c5c6ccccc6n2c5c31)CNC4=O | Active | Active |
| 0.7 µM | 0.008 µM | 10.4 µM | COc1ccccc1-c1cc(/C=C2\C(=O)Nc3ncc(Br)cc32)cc(Br)c1O [GW442130X] | – | – |
| > 50 µM | 0.061 µM | > 50 µM | O=C1Nc2ncc(Br)cc2/C1=C/c1cccc(Oc2ccccc2)c1 | – | – |
| > 12 µM | – | – | Cn1cc(/C=C2\C(=O)Nc3cccnc32)c2ccccc21 | – | – |
| 7.2 µM | 0.012 µM | > 6 µM | Cn1cc(/C=C2\C(=O)Nc3ncccc32)c2ccccc21 | – | – |
| – | 4.7 µM | – | O=C1Nc2ccc(I)cc2C1=Cc1cc(Br)c(O)c(Br)c1 [GW305074X] | – | – |

— ChEMBL document CHEMBL1147447, “Discovery and in vitro evaluation of potent TrkA kinase inhibitors: oxindole and aza-oxindoles” (Bioorg Med Chem Lett, 2004)
